In ChEMBL document CHEMBL5360652, “Drug Discovery Targeting Nuclear Receptor Binding SET Domain Protein 2 (NSD2)” (J Med Chem, 2023):
Blank lines part the entries; values can stand above or below the compound they belong to.

Tests used:
[1] = target: T1, Histone-lysine N-methyltransferase NSD2 (Homo sapiens) (UniProt O96028); test: Inhibition of NSD2 (unknown origin) at 50 uM relative to control
T1 sequence (whole entry): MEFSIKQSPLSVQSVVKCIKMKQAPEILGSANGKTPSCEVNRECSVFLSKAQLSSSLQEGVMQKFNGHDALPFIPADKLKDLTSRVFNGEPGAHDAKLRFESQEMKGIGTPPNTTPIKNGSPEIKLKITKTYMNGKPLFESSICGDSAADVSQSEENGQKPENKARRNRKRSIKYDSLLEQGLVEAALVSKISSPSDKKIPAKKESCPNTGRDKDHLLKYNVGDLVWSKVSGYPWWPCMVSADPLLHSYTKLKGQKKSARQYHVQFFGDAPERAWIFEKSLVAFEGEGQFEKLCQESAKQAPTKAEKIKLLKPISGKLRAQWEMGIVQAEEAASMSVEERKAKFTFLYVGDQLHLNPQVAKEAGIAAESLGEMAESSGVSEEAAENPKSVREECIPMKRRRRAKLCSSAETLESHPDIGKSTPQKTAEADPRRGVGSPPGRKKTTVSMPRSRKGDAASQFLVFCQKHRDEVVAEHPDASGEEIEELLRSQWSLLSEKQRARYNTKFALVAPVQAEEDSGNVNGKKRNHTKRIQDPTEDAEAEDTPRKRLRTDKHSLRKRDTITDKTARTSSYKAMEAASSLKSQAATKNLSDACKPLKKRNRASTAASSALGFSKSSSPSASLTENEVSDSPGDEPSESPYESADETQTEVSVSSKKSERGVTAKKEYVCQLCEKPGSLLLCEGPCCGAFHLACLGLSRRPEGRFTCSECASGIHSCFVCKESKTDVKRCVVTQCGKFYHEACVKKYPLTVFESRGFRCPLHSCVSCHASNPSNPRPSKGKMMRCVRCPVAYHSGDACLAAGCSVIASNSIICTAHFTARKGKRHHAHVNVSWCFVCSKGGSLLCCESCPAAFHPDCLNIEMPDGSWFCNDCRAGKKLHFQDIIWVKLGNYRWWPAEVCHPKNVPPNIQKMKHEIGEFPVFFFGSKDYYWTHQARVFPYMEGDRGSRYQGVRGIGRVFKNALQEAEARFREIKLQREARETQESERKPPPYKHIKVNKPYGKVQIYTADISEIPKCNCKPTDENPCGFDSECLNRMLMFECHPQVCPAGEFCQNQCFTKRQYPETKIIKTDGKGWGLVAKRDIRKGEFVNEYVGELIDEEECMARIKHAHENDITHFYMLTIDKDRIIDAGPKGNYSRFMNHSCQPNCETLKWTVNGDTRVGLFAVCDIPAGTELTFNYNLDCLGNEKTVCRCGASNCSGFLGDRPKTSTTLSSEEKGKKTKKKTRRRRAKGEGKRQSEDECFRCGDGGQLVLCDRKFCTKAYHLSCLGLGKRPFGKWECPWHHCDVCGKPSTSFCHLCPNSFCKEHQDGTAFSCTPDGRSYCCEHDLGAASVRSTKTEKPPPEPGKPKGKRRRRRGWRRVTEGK

[2] = target: T2, Histone-lysine N-methyltransferase, H3 lysine-36 specific (Homo sapiens, UniProt Q96L73); test: Inhibition of human recombinant NSD1 incubated for 2 hrs by AlphaLISA method
[3] = target: T2, Histone-lysine N-methyltransferase, H3 lysine-36 specific; test: Binding affinity to NSD1 (unknown origin) assessed as dissociation constant by ITC assay
[4] = target: T1, Histone-lysine N-methyltransferase NSD2 (Homo sapiens); test: Inhibition of NSD2 (unknown origin) at 10 uM relative to control
[5] = target: Histone-lysine N-methyltransferase 2A (Homo sapiens) (UniProt Q03164); test: Inhibition of MLL1 (unknown origin) at 10 uM relative to control
[6] = target: Histone-lysine N-methyltransferase SETDB1 (Homo sapiens) (UniProt Q15047); test: Inhibition of SETDB1 (unknown origin) at 10 uM relative to control
PC-3 = test: Antiproliferative activity against human PC-3 cells assessed as cell growth inhibition incubated for 48 hrs by MTT assay; format: functional, cell-based; conditions: PC-3, 48 h
[7] = target: T3, Histone-lysine N-methyltransferase NSD2 (Homo sapiens, UniProt O96028); test: Inhibition of NSD2 (unknown origin)
T3 sequence (O96028 whole entry): T1 sequence (whole entry)

[8] = target: T2, Histone-lysine N-methyltransferase, H3 lysine-36 specific; test: Inhibition of NSD1 SET domain (1852 to 2105 residues) (unknown origin) expressed in Escherichia coli BL21 (DE3)
[9] = target: T2, Histone-lysine N-methyltransferase, H3 lysine-36 specific; test: Inhibition of N-terminal hexa-histidine tagged NSD1 SET domain (1852 to 2105 residues) (unknown origin) expressed in Escherichia coli incubated for 2 hrs by ITC method
[10] = target: T4, Histone-lysine N-methyltransferase NSD3 (Homo sapiens, UniProt Q9BZ95); test: Antagonist activity against recombinant human GST-tagged NSD3 PWWP1 domain (247 to 398 residues) expressed in Escherichia coli BL21(DE3) incubated for 60 mins by TR-FRET assay
T4 sequence (Q9BZ95 whole entry): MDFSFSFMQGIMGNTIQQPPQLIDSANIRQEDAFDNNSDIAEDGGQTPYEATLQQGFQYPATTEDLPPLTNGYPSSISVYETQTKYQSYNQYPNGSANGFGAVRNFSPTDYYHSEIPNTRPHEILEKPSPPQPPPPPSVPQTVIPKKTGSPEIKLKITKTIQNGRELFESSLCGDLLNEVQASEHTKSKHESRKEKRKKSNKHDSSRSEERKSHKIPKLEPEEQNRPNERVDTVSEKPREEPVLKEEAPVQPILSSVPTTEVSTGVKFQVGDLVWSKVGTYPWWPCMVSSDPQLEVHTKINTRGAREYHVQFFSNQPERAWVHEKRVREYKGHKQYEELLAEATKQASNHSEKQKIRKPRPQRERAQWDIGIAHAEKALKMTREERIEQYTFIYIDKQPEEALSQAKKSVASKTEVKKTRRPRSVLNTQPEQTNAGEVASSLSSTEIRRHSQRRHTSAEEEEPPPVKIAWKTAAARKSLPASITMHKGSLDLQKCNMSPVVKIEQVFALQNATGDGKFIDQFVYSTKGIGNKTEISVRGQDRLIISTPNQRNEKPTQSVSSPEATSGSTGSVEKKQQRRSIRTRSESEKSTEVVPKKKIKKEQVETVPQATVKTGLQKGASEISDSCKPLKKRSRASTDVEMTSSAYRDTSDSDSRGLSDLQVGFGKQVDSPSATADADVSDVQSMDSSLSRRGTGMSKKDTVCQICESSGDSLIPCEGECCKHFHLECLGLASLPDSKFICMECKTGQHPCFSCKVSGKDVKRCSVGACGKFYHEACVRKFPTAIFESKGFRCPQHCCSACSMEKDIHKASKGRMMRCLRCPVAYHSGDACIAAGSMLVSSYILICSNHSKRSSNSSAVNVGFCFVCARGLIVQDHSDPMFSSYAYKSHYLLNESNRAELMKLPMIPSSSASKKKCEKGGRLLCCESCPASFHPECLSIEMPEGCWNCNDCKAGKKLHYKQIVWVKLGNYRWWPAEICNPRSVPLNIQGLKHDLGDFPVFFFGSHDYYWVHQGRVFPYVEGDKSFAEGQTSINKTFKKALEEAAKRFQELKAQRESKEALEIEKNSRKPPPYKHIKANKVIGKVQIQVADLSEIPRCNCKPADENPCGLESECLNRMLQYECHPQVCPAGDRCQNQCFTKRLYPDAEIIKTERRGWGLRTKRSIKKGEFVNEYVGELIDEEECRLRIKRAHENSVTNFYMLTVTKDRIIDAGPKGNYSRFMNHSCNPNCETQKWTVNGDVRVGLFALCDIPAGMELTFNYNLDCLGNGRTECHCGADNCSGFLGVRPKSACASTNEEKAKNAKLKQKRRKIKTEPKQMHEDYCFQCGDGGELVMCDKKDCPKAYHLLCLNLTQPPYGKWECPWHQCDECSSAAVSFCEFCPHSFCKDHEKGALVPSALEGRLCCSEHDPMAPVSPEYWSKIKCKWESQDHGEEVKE

[11] = test system: Respiratory syncytial virus; test: Antiviral activity against RSV assessed as viral growth inhibition; format: functional, organism-based; conditions: human respiratory syncytial virus
[12] = target: T3, Histone-lysine N-methyltransferase NSD2; test: Binding affinity to NSD2 PWWP1 domain (unknown origin) assessed as dissociation constant

T2 sequence (Q96L73 whole entry): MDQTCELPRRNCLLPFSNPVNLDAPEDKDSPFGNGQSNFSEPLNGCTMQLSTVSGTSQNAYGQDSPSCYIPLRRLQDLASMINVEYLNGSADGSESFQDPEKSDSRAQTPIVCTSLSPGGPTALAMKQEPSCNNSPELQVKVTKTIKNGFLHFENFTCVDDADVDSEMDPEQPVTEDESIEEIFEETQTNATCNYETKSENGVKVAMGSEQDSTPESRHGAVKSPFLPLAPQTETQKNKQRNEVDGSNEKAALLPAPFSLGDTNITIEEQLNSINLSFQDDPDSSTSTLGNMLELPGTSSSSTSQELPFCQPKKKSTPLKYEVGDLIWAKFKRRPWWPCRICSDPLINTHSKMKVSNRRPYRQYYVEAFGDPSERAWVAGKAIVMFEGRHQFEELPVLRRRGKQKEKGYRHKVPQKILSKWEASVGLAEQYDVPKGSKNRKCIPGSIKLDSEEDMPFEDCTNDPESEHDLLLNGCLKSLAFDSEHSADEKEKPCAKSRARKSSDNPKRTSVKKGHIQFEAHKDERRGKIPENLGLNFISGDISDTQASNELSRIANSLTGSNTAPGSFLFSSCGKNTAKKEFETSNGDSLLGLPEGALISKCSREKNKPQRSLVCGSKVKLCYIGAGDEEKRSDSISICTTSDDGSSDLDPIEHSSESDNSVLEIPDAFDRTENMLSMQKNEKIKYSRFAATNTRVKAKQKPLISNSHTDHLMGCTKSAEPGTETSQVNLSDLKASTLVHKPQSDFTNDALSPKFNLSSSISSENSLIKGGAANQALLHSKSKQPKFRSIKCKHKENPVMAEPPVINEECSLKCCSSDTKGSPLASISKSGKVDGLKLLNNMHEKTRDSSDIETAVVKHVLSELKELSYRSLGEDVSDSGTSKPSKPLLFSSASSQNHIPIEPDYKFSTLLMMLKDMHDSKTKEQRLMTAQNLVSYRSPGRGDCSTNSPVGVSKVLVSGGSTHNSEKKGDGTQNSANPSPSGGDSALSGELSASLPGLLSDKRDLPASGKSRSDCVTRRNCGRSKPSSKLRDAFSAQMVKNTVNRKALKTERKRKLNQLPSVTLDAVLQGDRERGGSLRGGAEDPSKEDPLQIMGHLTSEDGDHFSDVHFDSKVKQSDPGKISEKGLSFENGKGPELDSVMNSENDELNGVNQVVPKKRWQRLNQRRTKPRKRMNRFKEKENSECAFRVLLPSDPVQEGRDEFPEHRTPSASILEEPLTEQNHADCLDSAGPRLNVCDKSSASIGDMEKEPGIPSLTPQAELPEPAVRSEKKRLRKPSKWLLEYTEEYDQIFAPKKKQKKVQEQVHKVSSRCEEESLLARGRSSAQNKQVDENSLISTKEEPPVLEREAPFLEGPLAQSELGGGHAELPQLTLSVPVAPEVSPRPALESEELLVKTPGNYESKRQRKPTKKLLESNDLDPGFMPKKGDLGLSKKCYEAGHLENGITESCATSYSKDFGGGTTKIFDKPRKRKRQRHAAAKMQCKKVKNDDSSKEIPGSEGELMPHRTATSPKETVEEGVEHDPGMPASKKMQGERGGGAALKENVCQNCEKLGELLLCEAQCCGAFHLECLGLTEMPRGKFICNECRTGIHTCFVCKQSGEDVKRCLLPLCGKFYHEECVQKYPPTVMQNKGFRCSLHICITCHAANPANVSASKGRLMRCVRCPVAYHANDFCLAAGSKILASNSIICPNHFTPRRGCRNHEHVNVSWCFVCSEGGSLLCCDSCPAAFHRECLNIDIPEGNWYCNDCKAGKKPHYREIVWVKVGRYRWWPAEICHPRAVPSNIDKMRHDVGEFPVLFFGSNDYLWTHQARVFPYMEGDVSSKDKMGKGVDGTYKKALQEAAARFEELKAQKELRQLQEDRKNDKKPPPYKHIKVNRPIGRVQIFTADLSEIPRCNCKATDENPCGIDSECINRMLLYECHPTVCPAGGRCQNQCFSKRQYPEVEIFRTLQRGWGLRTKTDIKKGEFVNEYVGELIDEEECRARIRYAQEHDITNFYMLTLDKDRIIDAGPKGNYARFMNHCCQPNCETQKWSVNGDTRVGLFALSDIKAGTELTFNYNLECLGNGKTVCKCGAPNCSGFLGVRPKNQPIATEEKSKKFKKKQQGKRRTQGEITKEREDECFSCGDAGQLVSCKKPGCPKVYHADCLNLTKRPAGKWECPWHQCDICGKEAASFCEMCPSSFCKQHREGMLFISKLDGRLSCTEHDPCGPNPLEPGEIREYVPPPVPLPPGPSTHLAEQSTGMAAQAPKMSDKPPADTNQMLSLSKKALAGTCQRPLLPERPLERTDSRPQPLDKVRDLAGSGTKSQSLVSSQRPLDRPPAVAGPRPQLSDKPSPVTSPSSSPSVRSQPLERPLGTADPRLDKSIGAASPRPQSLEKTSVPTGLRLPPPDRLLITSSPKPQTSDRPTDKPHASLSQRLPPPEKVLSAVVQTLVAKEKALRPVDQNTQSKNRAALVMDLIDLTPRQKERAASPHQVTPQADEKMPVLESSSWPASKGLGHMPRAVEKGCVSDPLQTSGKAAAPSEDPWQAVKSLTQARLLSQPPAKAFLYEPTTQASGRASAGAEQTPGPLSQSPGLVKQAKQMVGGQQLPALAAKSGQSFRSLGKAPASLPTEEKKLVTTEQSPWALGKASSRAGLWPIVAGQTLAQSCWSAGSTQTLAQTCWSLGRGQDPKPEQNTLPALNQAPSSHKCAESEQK

inhibition [1]: 92%
SMILES: C=CC(=O)Nc1cc(NC(=O)Nc2ccc3nnsc3c2)cc(C(=O)OC)c1

inhibition [1]: 95%
inhibition [4]: 97%
inhibition [5]: 79%
inhibition [6]: 85%
IC50 (PC-3): < 10 µM
SMILES: COC(=O)c1cc(NC(=O)Nc2ccc3nnsc3c2)cc(C(=O)OC)c1

IC50 [7]: 8.3 µM
SMILES: Cn1nnc2cc(NC(=O)Nc3cccc([N+](=O)[O-])c3)ccc21

inhibition [1]: 92%
SMILES: N#Cc1cccc(NC(=O)Nc2ccc3nnsc3c2)c1

More lines, now with the values behind:

SMILES: Nc1ncnc2c1ncn2Cc1cc(-c2ccc(F)c(F)c2)ncc1N1CCC[C@](N)(COC2CC2)C1
IC50 [2]: 0.214 µM

SMILES: CCN(CC)CCCC(C)Nc1ccnc2cc(Cl)ccc12 (configuration not stated) [CHLOROQUINE PHOSPHATE]
Kd [3]: 4.7 µM

SMILES: COc1ccc(-c2cc(Cn3cnc4c(N)ncnc43)c(N3CCC[C@](N)(COC4CCC4)C3)cn2)cc1F
IC50 [2]: 0.27 µM

SMILES: O=C1O[C@@H](C(=O)N2CCN(Cc3nc4sc5c(c4c(=O)[nH]3)CCCC5)CC2)Cc2ccccc21
IC50 [8]: > 1000 µM

SMILES: N#CSc1cc(O)c2nc(N)sc2c1
IC50 [9]: < 20 µM

SMILES: Cc1cc(CN2CCC(N)CC2)cc(C)c1-c1ncn(C)c1-c1ccc(C#N)c2ccccc12
IC50 [10]: 0.11 µM
IC50 [11]: 6.3 µM

SMILES: O=C1c2c(O)ccc(O)c2C(=O)C2C(NCCNCCO)=CC=C(NCCNCCO)C12 (configuration not stated)
Kd [3]: 1.2 µM

SMILES: O=C1COc2cc(C(=O)N(Cc3cccs3)C3CC3)ccc2N1
Kd [12]: 3.4 µM
